# Assays:
# ORAC assay = details: Trolox equivalent
# Description: A method based on the description of Mielnik et al. was applied. In summary, 20 µL of the samples were used in 0.01 mg/mL concentration with a 96-well black microplate. In each well, 60 µL of AAPH (12 mM final concentration) and 120 µL of fluorescein solution (70 nM final concentration) were added. The fluorescence alteration of each sample was measured for 3 h with 1.5 min cycle intervals by a FLUOstar Optima BMG Labtech plate-reader. Trolox ((±)-6-hydroxy-2,5,7,8-tetramethyl-chromane-2-carboxylic acid) was used as a standard. Both Trolox and AAPH was supplied by Sigma-Aldrich, Hungary, while Fluorescein was provided by Fluka analytical, Japan. For data analysis, the GraphPad Prism 6.0 software was used. The results were expressed as mmol Trolox equivalent per g of dry material (mmloTE/g).
# DPPH assay = details: 30 min; 550 nm
# Description: A method based on the description of Miser-Salihoglu E. et al. was applied. The examination was performed on a FLUOstar Optima BMG Labtech plate-reader with 96-well microplates. The samples were measured in a DMSO environment with the volume of 150 µL per sample resulting 1 mg/mL concentration. Every well contained 50 µL (100 µM) of this base solution for the absorbance measurement (30 min; 550 nm). […] For data evaluation GraphPad Prism 6.0 software was utilized. The DPPH (2,2′-diphenyl-1-picrylhydrazyl) reagent necessary for the process was supplied by from Sigma-Aldrich Hungary.
smiles,measurement,setting,value
"O=C1O[C@H]([C@@H](O)CO)C(O)=C1O [Ascorbic acid, ascorbic acid]",ORAC Activity,ORAC assay,6.94 ± 0.58 mmol TE/g
same,DPPH EC50,DPPH assay,0.89 ± 0.02 µg/mL

# From article PMC8002351, “Triterpenes and Phenolic Compounds from the Fungus Fuscoporia torulosa: Isolation, Structure Determination and Biological Activity” (Molecules, 2021)
